Laboratory results published in publication PMC9578339, “Deracemisation and stereoinversion by a nanoconfined bidirectional enzyme cascade: dual control by electrochemistry and selective metal ion activation” (Chemical Communications (Cambridge, England), 2022).

Target: T1, LK (R-selective alcohol dehydrogenase) (Lentilactobacillus kefiri, UniProt Q6WVP7)
T1 construct: gene adh; homo-tetramer; Mg2+ dependent; co-entrapped with FNR in porous ITO electrode
T1 sequence (Q6WVP7 1-252): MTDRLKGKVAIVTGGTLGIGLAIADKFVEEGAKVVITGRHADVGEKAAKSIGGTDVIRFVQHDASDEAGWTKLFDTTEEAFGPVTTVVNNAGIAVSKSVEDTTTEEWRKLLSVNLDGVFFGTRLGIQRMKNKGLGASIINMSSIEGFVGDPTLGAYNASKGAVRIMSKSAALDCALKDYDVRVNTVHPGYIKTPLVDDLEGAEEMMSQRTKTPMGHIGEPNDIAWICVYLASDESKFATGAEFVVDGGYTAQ
Assay: chronoamperometry on FNR/ITO electrode, chiral GC
Type: biochemical
Conditions: pH 9.0, 50 mM TAPS, 25 °C, 5 mM Mg2+, 20 uM NADP+; enzyme entrapped with FNR and W110V in ITO electrode

For `C[C@@H](O)CCc1ccccc1` [(R)-4-phenyl-2-butanol], the “chronoamperometry on FNR/ITO electrode, chiral GC” value was “conversion of (R)-4-phenyl-2-butanol to 4-phenyl-2-butanone by LK”.
